Data taken from patent US10590128B2, “6,7,8,9-tetrahydro-5H-pyrido[2,3-d]azepine dopamine D3 ligands” (Pfizer Inc., priority 2016, dated 2020).

Assays:
[1] = biological target: human dopamine D2 receptor (hD2R) (Homo sapiens, UniProt P14416); test: Human D2 receptor binding assay ([^3H]-Spiperone); conditions: CHO cells expressing hD2R, geometric mean of 2-5 determinations unless marked b (single determination)
Procedure: (§1) Human D2 Receptor and Human D3 Receptor Binding Assays:
(§2) These determined ligand and tissue concentrations were utilized in time course studies to determine linearity and equilibrium conditions for binding. […] The hD2R assay buffer contains 50 mM Tris (pH 7.4 @ 37° C.), 100 mM NaCl and 1 mM MgCl2. The hD3R assay buffer consists of 50 mM Tris (pH 7.4 at 37° C.), 120 mM NaCl, 5 mM MgCl2, 5 mM KCl and 2 mM CaCl2. Competitive binding experiments were initiated by the addition of 200 μL of the respective cell homogenate to 96-well plates containing […] test drugs (10 concentrations using ½ log dilutions) and 50 μL of ^3H-radioligand for a final volume of 250 μL. Non-specific binding was determined by radioligand binding in the presence of a saturating concentration of Haldol (10 μM). After the 20 minute incubation at 37° C., assay samples were rapidly filtered through Unifilter-96 GF/B PEI-coated filter plates and rinsed with ice-cold 50 mM Tris buffer (pH 7.4 at 4° C.). […] The IC50 value (concentration at which 50% inhibition of specific binding occurs) was calculated by linear regression of the concentration-response data in ActivityBase. Ki values were then calculated according to the Cheng-Prusoff equation:
(§3) [formula] where [L]=concentration of free radioligand and Kd=dissociation constant of radioligand for D3 receptor or D2 receptor.

[2] = biological target: human dopamine D3 receptor (hD3R) (Homo sapiens, UniProt P35462); test: Human D3 receptor binding assay ([^3H]-7-OH-DPAT); conditions: CHO cells expressing hD3R, geometric mean of 2-5 determinations unless marked b (single determination), read-out: hD3 in CHO cells Ki
human dopamine D3 receptor (hD3R), sequence (P35462 whole entry): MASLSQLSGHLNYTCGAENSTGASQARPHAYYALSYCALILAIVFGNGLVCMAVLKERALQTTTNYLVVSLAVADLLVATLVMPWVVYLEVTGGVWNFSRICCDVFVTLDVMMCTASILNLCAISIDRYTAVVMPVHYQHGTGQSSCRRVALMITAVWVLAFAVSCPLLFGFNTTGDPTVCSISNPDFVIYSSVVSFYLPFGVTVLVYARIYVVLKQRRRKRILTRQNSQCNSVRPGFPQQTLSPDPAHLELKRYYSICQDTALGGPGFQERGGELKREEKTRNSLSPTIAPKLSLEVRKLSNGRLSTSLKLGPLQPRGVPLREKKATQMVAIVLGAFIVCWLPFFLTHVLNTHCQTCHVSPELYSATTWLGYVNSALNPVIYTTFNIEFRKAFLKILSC
Procedure: as §1, §2, §3

human dopamine D2 receptor (hD2R), sequence (P14416 whole entry): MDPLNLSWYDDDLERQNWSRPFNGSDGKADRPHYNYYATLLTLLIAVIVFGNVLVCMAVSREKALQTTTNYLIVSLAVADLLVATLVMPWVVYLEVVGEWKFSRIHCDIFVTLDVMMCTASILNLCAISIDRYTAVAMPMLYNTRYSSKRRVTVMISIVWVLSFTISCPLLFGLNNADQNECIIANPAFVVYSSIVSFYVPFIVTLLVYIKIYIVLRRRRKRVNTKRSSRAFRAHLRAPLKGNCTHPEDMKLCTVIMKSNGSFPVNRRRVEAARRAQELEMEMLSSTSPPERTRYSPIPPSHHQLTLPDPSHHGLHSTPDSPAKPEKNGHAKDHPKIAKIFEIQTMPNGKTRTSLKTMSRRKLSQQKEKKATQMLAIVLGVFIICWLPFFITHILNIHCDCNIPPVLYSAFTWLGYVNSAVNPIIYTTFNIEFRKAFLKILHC

Ki [1]	Ki [2]	Compound
260 nM	281 nM	CCCN1CCc2cc(NS(=O)(=O)c3ccc(C(C)C)cc3)c(OC(F)F)nc2CC1 [Example 12, N-[2-(Difluoromethoxy)-7-propyl-6,7,8,9-tetrahydro-5H-pyrido[2,3-d]azepin-3-yl]-4-(propan-2-yl)benzenesulfonamide]
923 nM	10.8 nM	CCN1CCc2nc(OC)c(NS(=O)(=O)c3ccc(C)cc3)cc2C(C)C1 (centres unmarked) [Example 13, N-(7-ethyl-2-methoxy-5-methyl-6,7,8,9-tetrahydro-5H-pyrido[2,3-d]azepin-3-yl)-4-methylbenzenesulfonamide]
36.6 nM	3.81 nM	CCOc1ccc(S(=O)(=O)Nc2cc3c(nc2OC(C)C)CCN(CC)CC3)cc1 [Example 14, 4-Ethoxy-N-[7-ethyl-2-(propan-2-yloxy)-6,7,8,9-tetrahydro-5H-pyrido[2,3-d]azepin-3-yl]benzenesulfonamide]
13.3 nM	0.714 nM	COc1nc2c(cc1NS(=O)(=O)c1ccc(OC3CCCC3)nc1)CCN(C)CC2 [Example 15, 6-(cyclopentyloxy)-N-(2-methoxy-7-methyl-6,7,8,9-tetrahydro-5H-pyrido[2,3-d]azepin-3-yl)pyridine-3-sulfonamide]
122 nM	2.41 nM	COc1nc2c(cc1NS(=O)(=O)c1ccc(C3CCCC3)nc1)CCN(C)CC2 [Example 16, 6-cyclopentyl-N-(2-methoxy-7-methyl-6,7,8,9-tetrahydro-5H-pyrido[2,3-d]azepin-3-yl)pyridine-3-sulfonamide]
90.2 nM	1.95 nM	COc1nc2c(cc1NS(=O)(=O)c1ccc(OC3CCC3)nc1)CCN(C)CC2 [Example 17, 6-(cyclobutyloxy)-N-(2-methoxy-7-methyl-6,7,8,9-tetrahydro-5H-pyrido[2,3-d]azepin-3-yl)pyridine-3-sulfonamide]
142 nM	3.58 nM	COc1nc2c(cc1NS(=O)(=O)c1cnc(OC3CCCC3)nc1)CCN(C)CC2 [Example 18, 2-(cyclopentyloxy)-N-(2-methoxy-7-methyl-6,7,8,9-tetrahydro-5H-pyrido[2,3-d]azepin-3-yl)pyrimidine-5-sulfonamide]
91.2 nM	2.76 nM	COc1nc2c(cc1NS(=O)(=O)c1ccc(C3(F)CCCCC3)nc1)CCN(C)CC2 [Example 19, 6-(1-fluorocyclohexyl)-N-(2-methoxy-7-methyl-6,7,8,9-tetrahydro-5H-pyrido[2,3-d]azepin-3-yl)pyridine-3-sulfonamide]
116 nM	1.74 nM	CCN1CCc2cc(NS(=O)(=O)c3ccc([C@H]4C[C@H](OCCF)C4)cc3)c(OC)nc2CC1 [Example 20, N-(7-ethyl-2-methoxy-6,7,8,9-tetrahydro-5H-pyrido[2,3-d]azepin-3-yl)-4-[trans-3-(2-fluoroethoxy)cyclobutyl]benzenesulfonamide]
25.5 nM	0.967 nM	CCO[C@H]1C[C@@H](c2ccc(S(=O)(=O)Nc3cc4c(nc3OC)CCN(C)CC4)cc2)C1 [Example 21, 4-(cis-3-ethoxycyclobutyl)-N-(2-methoxy-7-methyl-6,7,8,9-tetrahydro-5H-pyrido[2,3-d]azepin-3-yl)benzenesulfonamide]
30.3 nM	2.64 nM	CCO[C@H]1C[C@H](c2ccc(S(=O)(=O)Nc3cc4c(nc3OC)CCN(C)CC4)cc2)C1 [Example 22, 4-(trans-3-ethoxycyclobutyl)-N-(2-methoxy-7-methyl-6,7,8,9-tetrahydro-5H-pyrido[2,3-d]azepin-3-yl)benzenesulfonamide]
> 4600 nM	> 459 nM	CCN1CCc2cc(NS(=O)(=O)c3ccc([C@]4(O)C[C@@H](OC)C4)nc3)c(OC)nc2CC1 [Example 23, N-(7-ethyl-2-methoxy-6,7,8,9-tetrahydro-5H-pyrido[2,3-d]azepin-3-yl)-6-(cis-1-hydroxy-3-methoxycyclobutyl)pyridine-3-sulfonamide]
232 nM	4.2 nM	COc1nc2c(cc1NS(=O)(=O)c1cnc(C3CCC3)c(F)c1)CCN(C)CC2 [Example 24, 6-cyclobutyl-5-fluoro-N-(2-methoxy-7-methyl-6,7,8,9-tetrahydro-5H-pyrido[2,3-d]azepin-3-yl)pyridine-3-sulfonamide]
542 nM	5.07 nM	COc1nc2c(cc1NS(=O)(=O)c1ccc([C@]3(F)C[C@@H](C)C3)nc1)CCN(C)CC2 [Example 25, 6-(cis-1-fluoro-3-methylcyclobutyl)-N-(2-methoxy-7-methyl-6,7,8,9-tetrahydro-5H-pyrido[2,3-d]azepin-3-yl)pyridine-3-sulfonamide]
522 nM	2.43 nM	CCCN1CCc2cc(NS(=O)(=O)c3ccc(C)cc3)c(OC)nc2CC1 [Example 26, N-(2-methoxy-7-propyl-6,7,8,9-tetrahydro-5H-pyrido[2,3-d]azepin-3-yl)-4-methylbenzenesulfonamide]
400 nM	3.26 nM	COc1nc2c(cc1NS(=O)(=O)c1ccc(Cl)cc1)CCN(C)CC2 [Example 27, 4-chloro-N-(2-methoxy-7-methyl-6,7,8,9-tetrahydro-5H-pyrido[2,3-d]azepin-3-yl)benzenesulfonamide]
124 nM	2.33 nM	CCOc1ccc(S(=O)(=O)Nc2cc3c(nc2OC)CCN(C)CC3)cc1 [Example 28, 4-ethoxy-N-(2-methoxy-7-methyl-6,7,8,9-tetrahydro-5H-pyrido[2,3-d]azepin-3-yl)benzenesulfonamide]
1070 nM	11.1 nM	CCOc1ccc(S(=O)(=O)Nc2cc3c(nc2OC)CCN(CCOC)CC3)cc1 [Example 29, 4-ethoxy-N-[2-methoxy-7-(2-methoxyethyl)-6,7,8,9-tetrahydro-5H-pyrido[2,3-d]azepin-3-yl]benzenesulfonamide]
55 nM	0.89 nM	CCN1CCc2cc(NS(=O)(=O)c3ccc(C4CC4)cc3)c(OC)nc2CC1 [Example 30, 4-cyclopropyl-N-(7-ethyl-2-methoxy-6,7,8,9-tetrahydro-5H-pyrido[2,3-d]azepin-3-yl)benzenesulfonamide]
564 nM	1.24 nM	COc1nc2c(cc1NS(=O)(=O)c1ccc3c(c1)CCCO3)CCN(C)CC2 [Example 31, N-(2-methoxy-7-methyl-6,7,8,9-tetrahydro-5H-pyrido[2,3-d]azepin-3-yl)-3,4-dihydro-2H-chromene-6-sulfonamide]
204 nM	1.05 nM	COc1nc2c(cc1NS(=O)(=O)c1ccc(C(C)OC)cc1)CCN(C)CC2 (centres unmarked) [Example 32, 4-(1-methoxyethyl)-N-(2-methoxy-7-methyl-6,7,8,9-tetrahydro-5H-pyrido[2,3-d]azepin-3-yl)benzenesulfonamide]
26.3 nM	0.65 nM	COc1nc2c(cc1NS(=O)(=O)c1ccc3c(c1)CC(C)(C)O3)CCN(C)CC2 [Example 34, N-(2-methoxy-7-methyl-6,7,8,9-tetrahydro-5H-pyrido[2,3-d]azepin-3-yl)-2,2-dimethyl-2,3-dihydro-1-benzofuran-5-sulfonamide]
995 nM	3.7 nM	CCN1CCc2cc(NS(=O)(=O)c3ccc(C)c(F)c3)c(OC)nc2CC1 [Example 35, N-(7-ethyl-2-methoxy-6,7,8,9-tetrahydro-5H-pyrido[2,3-d]azepin-3-yl)-3-fluoro-4-methylbenzenesulfonamide]
260 nM	3.29 nM	COc1nc2c(cc1NS(=O)(=O)c1ccc(C3CCOC3)cc1)CCN(C)CC2 (centres unmarked) [Example 36, N-(2-methoxy-7-methyl-6,7,8,9-tetrahydro-5H-pyrido[2,3-d]azepin-3-yl)-4-(tetrahydrofuran-3-yl)benzenesulfonamide]
260 nM	3.21 nM	COc1nc2c(cc1NS(=O)(=O)c1ccc(O[C@@H]3CCOC3)cc1)CCN(C)CC2 [Example 37, N-(2-methoxy-7-methyl-6,7,8,9-tetrahydro-5H-pyrido[2,3-d]azepin-3-yl)-4-[(3R)-tetrahydrofuran-3-yloxy]benzenesulfonamide]
339 nM	2.93 nM	COc1nc2c(cc1NS(=O)(=O)c1ccc([C@H]3CC[C@H](OC)CC3)cc1)CCN(C)CC2 [Example 38, 4-(trans-4-methoxycyclohexyl)-N-(2-methoxy-7-methyl-6,7,8,9-tetrahydro-5H-pyrido[2,3-d]azepin-3-yl)benzenesulfonamide]
131 nM	1.79 nM	CCN1CCc2cc(NS(=O)(=O)c3ccc([C@@H]4CCCCO4)c(F)c3)c(OC)nc2CC1 [Example 43, N-(7-ethyl-2-methoxy-6,7,8,9-tetrahydro-5H-pyrido[2,3-d]azepin-3-yl)-3-fluoro-4-[(2S)-tetrahydro-2H-pyran-2-yl]benzenesulfonamide]
162 nM	2.25 nM	COc1nc2c(cc1NS(=O)(=O)c1ccc(C(C)C)cc1)CCN(CCCF)CC2 [Example 44, N-[7-(3-fluoropropyl)-2-methoxy-6,7,8,9-tetrahydro-5H-pyrido[2,3-d]azepin-3-yl]-4-(propan-2-yl)benzenesulfonamide]
